In paper PMC6001238, “Iterative Chemical Engineering of Vancomycin Leads to Novel Vancomycin Analogs With a High in Vitro Therapeutic Index” (Frontiers in Microbiology, 2018):
Converted amounts (≈) assume the structure as drawn.

How the values were obtained:
[1] = test system: E. faecalis VSE 1; experiment: MIC, broth microdilution, vancomycin-sensitive E. faecalis (VSE 1); assay type: cell-based, Enterococcus faecalis; settings: for MIC: Enterococcus faecalis VSE 1 (vancomycin-sensitive), read-out: MIC; for MIC-fold improvement vs. vancomycin: VSE 1, ratio of MIC of vancomycin and MIC of analogue
Procedure, shortened: (§1)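 CLSI broth microdilution; water and uninoculated-broth controls; one arm supplemented with vancomycin, final 10 μM, given with analogue or control antibiotic.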

[2] = test system: E. faecalis VRE 6; experiment: MIC, broth microdilution, vancomycin-resistant E. faecalis VRE 6 (VanA); assay type: cell-based, Enterococcus faecalis; settings: for MIC: Enterococcus faecalis VRE 6 (vancomycin-resistant), read-out: MIC; for MIC-fold improvement vs. vancomycin: VRE 6, ratio of MIC of vancomycin and MIC of analogue
Procedure, shortened: as §1

[3] = test system: E. faecalis VRE 53; experiment: MIC, broth microdilution, vancomycin-resistant E. faecalis VRE 53 (VanA); assay type: cell-based, Enterococcus faecalis; settings: for MIC: Enterococcus faecalis VRE 53 (vancomycin-resistant), read-out: MIC; for MIC-fold improvement vs. vancomycin: VRE 53, ratio of MIC of vancomycin and MIC of analogue
Procedure, shortened: as §1

[4] = test system: E. faecalis VRE 29; experiment: MIC, broth microdilution, vancomycin-resistant E. faecalis VRE 29 (VanA); assay type: cell-based, Enterococcus faecalis; settings: for MIC: Enterococcus faecalis VRE 29 (vancomycin-resistant), read-out: MIC
Procedure, shortened: as §1

[5] = test system: E. faecalis VRE 37; experiment: MIC, broth microdilution, vancomycin-resistant E. faecalis VRE 37 (VanA); assay type: cell-based, Enterococcus faecalis; settings: for MIC: Enterococcus faecalis VRE 37 (vancomycin-resistant), read-out: MIC; for MIC-fold improvement vs. vancomycin: VRE 37, ratio of MIC of vancomycin and MIC of analogue
Procedure, shortened: as §1

[6] = test system: Murine leukemia (L1210) cells; experiment: Cytostatic activity, L1210 cell proliferation; assay type: cell-based; settings: mean ± SD of three experiments; highest concentration tested 250 µM; 2 days; read-out: Toxicity (IC50) L1210
Procedure, shortened: (§2)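 Test compounds, serially diluted, received an equal volume of cell suspension at 300,000–500,000 cells/mL. After 37°C incubation (2 days for L1210, 3 for CEM, 4 for HeLa), cells were enumerated by Coulter counting and 50%-inhibitory concentrations calculated per cell type.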

[7] = test system: human T-lymphocyte (CEM) cells; experiment: Cytostatic activity, CEM cell proliferation; assay type: cell-based; settings: mean ± SD of three experiments; highest concentration tested 250 µM; 3 days; read-out: Toxicity (IC50) CEM
Procedure, shortened: as §2

[8] = test system: human cervix carcinoma (HeLa) cells; experiment: Cytostatic activity, HeLa cell proliferation; assay type: cell-based; settings: mean ± SD of three experiments; highest concentration tested 250 µM; 4 days; read-out: Toxicity (IC50) HeLa
Procedure, shortened: as §2

[9] = test system: L1210, CEM and HeLa cell lines; experiment: Cytostatic activity, average or summary over L1210, CEM and HeLa; assay type: cell-based; settings: average of L1210, CEM and HeLa; read-out: Toxicity (IC50) Average
Procedure, shortened: as §2

[10] = test system: S. aureus VSSA (ATCC 6538); experiment: MIC, broth microdilution, vancomycin-sensitive S. aureus (VSSA/MSSA, ATCC 6538); assay type: cell-based, Staphylococcus aureus; settings: for MIC: Staphylococcus aureus VSSA, read-out: MIC; for MIC-fold improvement vs. vancomycin: VSSA, ratio of MIC of vancomycin and MIC of analogue
Procedure, shortened: as §1

[11] = test system: S. aureus VISA/HIP5827; experiment: MIC, broth microdilution, vancomycin-intermediate S. aureus VISA HIP5827; assay type: cell-based, Staphylococcus aureus; settings: for MIC: Staphylococcus aureus VISA/HIP5827, read-out: MIC; for MIC-fold improvement vs. vancomycin: VISA/HIP5827, ratio of MIC of vancomycin and MIC of analogue
Procedure, shortened: as §1

[12] = test system: S. aureus VRSA; experiment: MIC, broth microdilution, vancomycin-resistant S. aureus (VRSA); assay type: cell-based, Staphylococcus aureus; settings: for MIC: Staphylococcus aureus VRSA, read-out: MIC; for MIC-fold improvement vs. vancomycin: VRSA, ratio of MIC of vancomycin and MIC of analogue
Procedure, shortened: as §1

[13] = test system: MRSA KS2; experiment: MIC, broth microdilution, MRSA KS2; assay type: cell-based, Staphylococcus aureus; settings: for MIC-fold improvement vs. vancomycin: MRSA KS2, ratio of MIC of vancomycin and MIC of analogue; for MIC: Staphylococcus aureus MRSA KS2, read-out: MIC
Procedure, shortened: as §1

[14] = test system: MRSA KS6; experiment: MIC, broth microdilution, MRSA KS6; assay type: cell-based, Staphylococcus aureus; settings: for MIC-fold improvement vs. vancomycin: MRSA KS6, ratio of MIC of vancomycin and MIC of analogue; for MIC: Staphylococcus aureus MRSA KS6, read-out: MIC
Procedure, shortened: as §1

[15] = test system: MRSA KS89; experiment: MIC, broth microdilution, MRSA KS89; assay type: cell-based, Staphylococcus aureus; settings: for MIC-fold improvement vs. vancomycin: MRSA KS8, ratio of MIC of vancomycin and MIC of analogue; for MIC: Staphylococcus aureus MRSA KS8, read-out: MIC
Procedure, shortened: as §1

[16] = test system: MRSA KS1; experiment: MIC, broth microdilution, MRSA KS1; assay type: cell-based, Staphylococcus aureus; settings: for MIC-fold improvement vs. vancomycin: MRSA KS1, ratio of MIC of vancomycin and MIC of analogue; for MIC: Staphylococcus aureus MRSA KS1, read-out: MIC
Procedure, shortened: as §1

MIC [1] [µM]	MIC-fold improvement vs. vancomycin [1]	MIC [2] [µM]	MIC-fold improvement vs. vancomycin [2]	MIC [3] [µM]	MIC-fold improvement vs. vancomycin [3]	MIC [4] [µM]	MIC [5] [µM]	MIC-fold improvement vs. vancomycin [5]	MIC [10] [µM]	MIC-fold improvement vs. vancomycin [10]	MIC [11] [µM]	MIC-fold improvement vs. vancomycin [11]	MIC [12] [µM]	MIC-fold improvement vs. vancomycin [12]	MIC-fold improvement vs. vancomycin [13]	Compound	IC50 [6] [µM]	IC50 [7] [µM]	IC50 [8] [µM]	IC50 [9] [µM]	also measured
0.39 (≈ 0.628 µg/mL)	4	12.5 (≈ 20.1 µg/mL)	16	12.5 (≈ 20.1 µg/mL)	32	12.5 (≈ 20.1 µg/mL)	3.13 (≈ 5.04 µg/mL)	256	0.39 (≈ 0.628 µg/mL)	2	0.39 (≈ 0.628 µg/mL)	16	3.13 (≈ 5.04 µg/mL)	32	4	CCc1ccc(NC(=O)CNC(=O)[C@H]2NC(=O)[C@H]3NC(=O)[C@H](NC(=O)[C@@H]4NC(=O)[C@H](CC(N)=O)NC(=O)[C@H](NC(=O)[C@@H](CC(C)C)NC)[C@H](O)c5ccc(c(Cl)c5)Oc5cc4cc(c5O[C@@H]4O[C@H](CO)[C@@H](O)[C@H](O)[C@H]4O[C@H]4C[C@](C)(N)[C@H](O)[C@H](C)O4)Oc4ccc(cc4Cl)[C@H]3O)c3ccc(O)c(c3)-c3c(O)cc(O)cc32)cc1 [Vanc-13]	> 250	> 250	149 ± 6	216	MIC [13]: 0.20 µM (≈ 0.322 µg/mL); MIC-fold improvement vs. vancomycin [14]: 2; MIC [14]: 0.39 µM (≈ 0.628 µg/mL); MIC-fold improvement vs. vancomycin [15]: 2; MIC [15]: 0.39 µM (≈ 0.628 µg/mL); MIC-fold improvement vs. vancomycin [16]: 2; MIC [16]: 0.39 µM (≈ 0.628 µg/mL)
0.78 (≈ 1.37 µg/mL)	2	3.13 (≈ 5.49 µg/mL)	64	6.25 (≈ 11 µg/mL)	64	6.25 (≈ 11 µg/mL)	6.25 (≈ 11 µg/mL)	64	0.39 (≈ 0.684 µg/mL)	2	0.78 (≈ 1.37 µg/mL)	8	0.78 (≈ 1.37 µg/mL)	128	4	CNC(CC(C)C)C(=O)NC1C(=O)NC(CC(N)=O)C(=O)NC2C(=O)NC3C(=O)NC(C(=O)NC(C(=O)NCC(=O)Nc4ccc(-c5cn(-c6ccc(OC)cc6)nn5)cc4)c4cc(O)cc(O)c4-c4cc3ccc4O)C(O)c3ccc(c(Cl)c3)Oc3cc2cc(c3OC2OC(CO)C(O)C(O)C2OC2CC(C)(N)C(O)C(C)O2)Oc2ccc(cc2Cl)C1O (stereo not shown) [Vanc-72]	173 ± 106	17 ± 1	25 ± 10	72	MIC-fold improvement vs. vancomycin ([4]; VRE 29, ratio of MIC of vancomycin and MIC of analogue): 64; MIC [13]: 0.20 µM (≈ 0.351 µg/mL); MIC-fold improvement vs. vancomycin [14]: 4; MIC [14]: 0.20 µM (≈ 0.351 µg/mL); MIC-fold improvement vs. vancomycin [15]: 4; MIC [15]: 0.20 µM (≈ 0.351 µg/mL); MIC-fold improvement vs. vancomycin [16]: 0.5; MIC [16]: 1.56 µM (≈ 2.74 µg/mL)
